Measured values as given in US20120157395A1, “ANTI-INFLAMMATORY AGENT FOR ORAL APPLICATION, AND ANTI-INFLAMMATORY PEPTIDE FOR ORAL APPLICATION” (priority 2009, published 2012).
Residues, ends and D or L forms follow the SMILES beside them.

Experiment: Identification of absorbed peptides in plasma (PDA-HPLC, LC-MS/MS)
Format: in vivo
Settings: pigs fed Peptide Composition 1 (Example 1), blood collected during dissection; 3 peptide peaks present
Procedure: First, between 3 and 5 day-old 18 pigs were divided into 3 groups and they were bred for 3 days. Then the groups were designated as test groups (Example 1 and Comparative Example 1) and a control group (Comparative Example 2) and 1.25 g of dextran sulfate per kg of body weight was given as drinking water for 5 days (DSS treatment). Then, 250 mg of Peptide Composition 1 per kg of body weight was fed for 5 days in Example 1, 250 mg of Peptide Composition 2 per kg of body weight was fed for 5 days in Comparative Example 1, and alanine corresponding to the nitrogen content of the peptide was fed in Comparative Example 2. After that, the intestinal tract cells were collected during dissection and cytokines were measured. Comparative Example 2 corresponds to the control. (Dextran sulfate is a substance which induces bowel inflammation. International J. of Colorectal Disease, 15, 144-160 (2000))
Blood was collected during dissection and plasma was isolated, and then the structural analysis of a peak obtained by PDA-HPLC was carried out by LC-MS/MS to identify an amino acid sequence of the peptides.

peptide peak present in plasma: largest peak
Structure (SMILES): CC(C)C[C@H](NC(=O)[C@@H](N)Cc1ccccc1)C(=O)N[C@H](C(=O)O)C(C)C [FLV, Phe-Leu-Val] (H-Phe-Leu-Val-OH; N-terminus and C-terminus assumed)
